Experimental data as given in paper PMC2709466, “Heteroarotinoids with Anti-Cancer Activity Against Ovarian Cancer Cells” (The Open Medicinal Chemistry Journal, 2007).

Assays:
[1] = design: method as in PMID 9357524; settings: mice; cited from earlier work
[2] = test system: A2780 ovarian cancer cells; assay: CellTiter 96 AQueous One Solution (MTS) cytotoxicity assay, 48 h, A2780; type: cell-based; settings: for Growth inhibition of ovarian cancer cultures (in words): A2780, Fig. 4; for Differential effects on cancer cells versus normal cells (therapeutic window): A2780 versus normal endometrial cells, Fig. 4C and Table 4; for EC50: Homo sapiens, A2780 ovarian cancer cells, 48 hours of treatment, read-out: Potencies (EC50 values) of Growth Inhibition Activity, A2780 Ovarian Cancer
Description: (§1) The CellTiter 96 AQueous One Solution Cell Proliferation Assay (Promega) was used to measure living cells remaining after 48 hours of incubation with or without a range of concentrations for the heteroarotinoids. MTS [3-(4,5-dimethylthiazol-2-yl)-5-(3-carboxymethoxyphenyl)-2-(4-sulfophenyl) -2H-tetrazolium, inner salt], a novel tetrazolium compound, was added to each well and incubated for 4 hours, followed by addition of a solublization/stop solution. After overnight incubation, the optical density (OD) of each well was determined by measuring the absorbance at 540 nm using a Dynex MRX Revelation microtiter plate reader. Treatments were performed in triplicate, and the growth indices were derived by dividing the average OD540 of each treatment by the average OD540 of control cultures. The results represent the average and standard error of two to three independent experiments.
(§2) The A2780 ovarian cancer cells were cultured in RPMI media, and normal endometrial cells were cultured in MEM media. Both media contained fetal bovine serum (FBS), sodium pyruvate, and antibiotic/antimycotic. The normal endometrial cells were collected from a healthy premenopausal […] and used prior to passage as previously described.
The abilities of the new heteroarotinoids to inhibit cancer growth were compared by growing the ovarian cancer cell line (A2780) in the absence and presence of various concentrations of the different compounds. The amount of cells remaining after 48 hours of treatment was measured using a cytotoxicity assay. The optical density (OD) endpoint of the assay represents the number of cells remaining after 48 hours of treatment. The Growth Index was derived by dividing the OD of treated cultures by the OD of untreated cultures. The results are presented in graphic form where Growth Index on the y axis represents the number of cells remaining after 48 hours of treatment relative to untreated controls, and the x axis represents the concentration of drug added. The lower the Growth Index, the greater the growth inhibition.

normal endometrial cells = assay: CellTiter 96 AQueous One Solution (MTS) cytotoxicity assay, 48 h, normal cells; type: cell-based; settings: 48 hours of treatment, read-out: Potencies (EC50 values) of Growth Inhibition Activity, Normal Endometrium
Description: as §1, §2

A2780 cells = assay: Annexin-V-FITC / propidium iodide apoptosis assay (flow cytometry); type: cell-based; settings: 10 µM, 24 hours
Description: Cells were plated in 6-well tissue culture dishes at a cell density of 1 x 10^5 cells/well. After allowing cells to adhere to the dishes overnight, parallel cultures were treated with varying concentrations of heteroarotinoids or the same volume of DMSO solvent for 24 hours. The Vybrant™ Apoptosis Assay Kit #3 (Molecular Probes) was then utilized to measure apoptosis and necrosis. Tissue culture medium in each well was collected to harvest cells that had already lifted off the tissue culture plate. These were combined with adherent cells that were harvested by trypsinization. The cells were pelleted by centrifugation and resuspended in 100 μL of 1X annexin-binding buffer, and then they were incubated with 5 µl of annexin V conjugated to fluorescein (Annexin-V-FITC) and 1 µL of 100 µg/mL propidium iodide (PI) for 15 minutes at room temperature. The solution was then mixed gently with an additional 400 µl of 1X annexin-binding buffer, and the samples were evaluated with a FACSCalibur (Becton Dickinson) automated benchtop flow cytometer at an excitation wavelength of 488 nm with observation wavelengths of 530 nm and 575 nm. Flow cytometry data were quantified using Summit for MoFlo Acquisition and Sort Control Software (Cytomation, Inc). […]

[3] = design: method as in PMID 16534614; settings: cited from earlier work
[4] = design: method as in PMID 16534614; settings: preliminary evidence; cited from earlier work
cancerous cell phenotype = test system: cancerous cell phenotype; design: method as in PMID 11287445; settings: at 3 μM; cited from earlier work
[5] = preclinical testing; cited from earlier work

| melting point | SMILES | Growth inhibition of ovarian cancer cultures (in words) [2] | Differential effects on cancer cells versus normal cells (therapeutic window) [2] | EC50 [2] | EC50 (normal endometrial cells) | other results |
| --- | --- | --- | --- | --- | --- | --- |
| – | CC1=C(/C=C/C(C)=C/C=C/C(C)=C/C(=O)O)C(C)(C)CCC1 [Compound 1, trans-retinoic acid] | – | – | – | – | maximum tolerated dose (MTD) [1]: 10 mg/kg/day |
| – | CC1(C)CC(C)(C)c2cc(NC(=O)Nc3ccc([N+](=O)[O-])cc3)ccc2S1 [Compound 10c, 1-(2,2,4,4-Tetramethylthiochroman-6-yl)-3-(4-nitrophenyl)urea] | micromolar range | differential effects | 1.02 µM | 2.29 µM | Induction of apoptosis (Annexin-V-FITC staining) (A2780 cells): induces positive staining for Annexin-V-FITC; Degree of apoptosis induced, 10c compared with 10a (A2780 cells; Fig. 5C): slightly higher |
| 113 to 115 °C | Cc1ccc2cc(NC(=S)Nc3ccc([N+](=O)[O-])cc3)ccc2n1 [Compound 9a, 1-(2-Methylquinolin-6-yl)-3-(4-nitrophenyl) thiourea] | – | – | 5 µM | > 1000 µM | – |
| 241 to 242 °C | Cc1ccc2cc(NC(=O)Nc3ccc([N+](=O)[O-])cc3)ccc2n1 [Compound 9b, 1-(2-Methylquinolin-6-yl)-3-(4-nitrophenyl)urea] | – | – | 7.86 µM | > 1000 µM | – |
| – | CCOC(=O)c1ccc(NC(=O)Nc2ccc3nc(C)ccc3c2)cc1 [Compound 9c, Ethyl 4-[3-(2-Methylquinolin-6-yl)ureido]benzoate] | – | – | 4.88 µM | > 1000 µM | – |
| – | CC1(C)CC(C)(C)c2cc(NC(=S)Nc3ccc([N+](=O)[O-])cc3)ccc2S1 [Compound 10a, [4-nitrophenylamino][(2,2,4,4-tetramethylthiochroman-6-yl)amino]methane-1-thione] | micromolar range | differential effects | 1.72 µM | 2.97 µM | Binding to proteins in mouse plasma [3]: binds strongly; Concentrations achieved and maintained in animal models [4]: micromolar concentrations; Effects on differentiation (cancerous cell phenotype): normalization of the cancerous cell phenotype and induction of orderly tissue architecture; Toxicity, skin irritancy, teratogenicity [5]: without evidence of toxicity, skin irritancy, or teratogenicity |
